In ChEMBL document CHEMBL1145633, “Inhibitors of the tyrosine kinase EphB4. Part 1: Structure-based design and optimization of a series of 2,4-bis-anilinopyrimidines” (Bioorg Med Chem Lett, 2008):
≈ marks a conversion by molar mass, not a printed value. One block for each compound: values may come before it.

Experiments:
Ephrin type-B receptor 4 = target: T1, Ephrin type-B receptor 4 (Homo sapiens, UniProt P54760); test: Inhibition of EphB4
T1 sequence (P54760 whole entry): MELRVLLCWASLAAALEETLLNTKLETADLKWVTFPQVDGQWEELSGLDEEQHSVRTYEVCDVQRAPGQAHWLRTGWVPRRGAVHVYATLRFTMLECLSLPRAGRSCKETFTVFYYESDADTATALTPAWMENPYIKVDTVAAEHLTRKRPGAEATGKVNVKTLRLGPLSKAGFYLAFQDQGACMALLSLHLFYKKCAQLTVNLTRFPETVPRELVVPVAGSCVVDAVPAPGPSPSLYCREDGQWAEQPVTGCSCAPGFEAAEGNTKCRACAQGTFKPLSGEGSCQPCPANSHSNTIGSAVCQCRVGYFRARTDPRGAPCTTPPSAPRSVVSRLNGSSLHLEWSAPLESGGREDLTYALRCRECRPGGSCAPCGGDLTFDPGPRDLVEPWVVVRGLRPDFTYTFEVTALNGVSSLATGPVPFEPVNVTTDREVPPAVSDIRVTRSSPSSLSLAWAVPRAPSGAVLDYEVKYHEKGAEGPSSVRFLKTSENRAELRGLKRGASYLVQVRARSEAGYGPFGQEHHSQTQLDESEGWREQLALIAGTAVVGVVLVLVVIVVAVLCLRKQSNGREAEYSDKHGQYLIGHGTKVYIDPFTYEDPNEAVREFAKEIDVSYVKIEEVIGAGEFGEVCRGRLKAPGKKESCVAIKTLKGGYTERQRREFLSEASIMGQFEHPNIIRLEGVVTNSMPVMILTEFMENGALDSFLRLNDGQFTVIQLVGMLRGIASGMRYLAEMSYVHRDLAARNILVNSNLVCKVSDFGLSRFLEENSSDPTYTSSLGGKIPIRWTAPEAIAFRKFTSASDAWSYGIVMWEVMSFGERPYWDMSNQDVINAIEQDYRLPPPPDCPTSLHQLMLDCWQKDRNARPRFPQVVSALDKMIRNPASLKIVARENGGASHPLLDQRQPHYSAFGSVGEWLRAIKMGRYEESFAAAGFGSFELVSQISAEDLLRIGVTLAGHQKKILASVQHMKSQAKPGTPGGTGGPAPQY

Ephrin type-B receptor 2 = target: T2, Ephrin type-B receptor 2 (Homo sapiens, UniProt P29323); test: Inhibition of EphB2
T2 sequence (P29323 whole entry): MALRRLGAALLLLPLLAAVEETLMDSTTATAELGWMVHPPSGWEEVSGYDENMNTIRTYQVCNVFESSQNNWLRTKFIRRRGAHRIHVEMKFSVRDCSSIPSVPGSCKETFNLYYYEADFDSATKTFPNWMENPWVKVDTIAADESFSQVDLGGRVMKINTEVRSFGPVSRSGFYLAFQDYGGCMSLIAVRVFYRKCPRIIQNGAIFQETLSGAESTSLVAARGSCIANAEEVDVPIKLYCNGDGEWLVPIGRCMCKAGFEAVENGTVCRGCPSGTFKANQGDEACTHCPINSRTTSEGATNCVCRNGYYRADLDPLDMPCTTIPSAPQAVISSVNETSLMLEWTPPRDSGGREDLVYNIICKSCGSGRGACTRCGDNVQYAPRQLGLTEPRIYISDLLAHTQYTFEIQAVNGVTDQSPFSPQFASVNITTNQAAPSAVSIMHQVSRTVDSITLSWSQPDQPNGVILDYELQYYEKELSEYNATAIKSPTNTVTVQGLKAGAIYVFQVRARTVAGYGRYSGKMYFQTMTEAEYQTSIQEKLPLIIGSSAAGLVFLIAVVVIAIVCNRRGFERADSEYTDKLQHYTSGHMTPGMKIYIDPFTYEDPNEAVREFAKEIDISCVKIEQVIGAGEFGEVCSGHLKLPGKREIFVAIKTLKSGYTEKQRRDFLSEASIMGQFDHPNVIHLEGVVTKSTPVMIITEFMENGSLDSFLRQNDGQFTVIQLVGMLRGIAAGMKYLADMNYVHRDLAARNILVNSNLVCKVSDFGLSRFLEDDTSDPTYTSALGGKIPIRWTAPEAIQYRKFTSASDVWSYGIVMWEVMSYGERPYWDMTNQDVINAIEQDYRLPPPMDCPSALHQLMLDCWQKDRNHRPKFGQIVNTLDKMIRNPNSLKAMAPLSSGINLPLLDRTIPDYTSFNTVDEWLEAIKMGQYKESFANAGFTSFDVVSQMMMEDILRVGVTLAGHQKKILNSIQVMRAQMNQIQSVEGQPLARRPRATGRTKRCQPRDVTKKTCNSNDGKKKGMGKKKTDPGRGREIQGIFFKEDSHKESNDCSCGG

[1] = target: Proto-oncogene tyrosine-protein kinase Src (Homo sapiens, UniProt P12931); test: Inhibition of Src
[2] = target: Tyrosine-protein kinase CSK (Homo sapiens, UniProt P41240); test: Inhibition of CSK
[3] = target: Cyclin-dependent kinase 2 (Homo sapiens, UniProt P24941); test: Inhibition of CDK2
Focal adhesion kinase 1 = Focal adhesion kinase 1 (Homo sapiens, UniProt Q05397); test: Inhibition of FAK
[4] = target: T3, Tyrosine-protein kinase JAK3 (Homo sapiens, UniProt P52333); test: Inhibition of JAK3
T3 sequence (P52333 whole entry): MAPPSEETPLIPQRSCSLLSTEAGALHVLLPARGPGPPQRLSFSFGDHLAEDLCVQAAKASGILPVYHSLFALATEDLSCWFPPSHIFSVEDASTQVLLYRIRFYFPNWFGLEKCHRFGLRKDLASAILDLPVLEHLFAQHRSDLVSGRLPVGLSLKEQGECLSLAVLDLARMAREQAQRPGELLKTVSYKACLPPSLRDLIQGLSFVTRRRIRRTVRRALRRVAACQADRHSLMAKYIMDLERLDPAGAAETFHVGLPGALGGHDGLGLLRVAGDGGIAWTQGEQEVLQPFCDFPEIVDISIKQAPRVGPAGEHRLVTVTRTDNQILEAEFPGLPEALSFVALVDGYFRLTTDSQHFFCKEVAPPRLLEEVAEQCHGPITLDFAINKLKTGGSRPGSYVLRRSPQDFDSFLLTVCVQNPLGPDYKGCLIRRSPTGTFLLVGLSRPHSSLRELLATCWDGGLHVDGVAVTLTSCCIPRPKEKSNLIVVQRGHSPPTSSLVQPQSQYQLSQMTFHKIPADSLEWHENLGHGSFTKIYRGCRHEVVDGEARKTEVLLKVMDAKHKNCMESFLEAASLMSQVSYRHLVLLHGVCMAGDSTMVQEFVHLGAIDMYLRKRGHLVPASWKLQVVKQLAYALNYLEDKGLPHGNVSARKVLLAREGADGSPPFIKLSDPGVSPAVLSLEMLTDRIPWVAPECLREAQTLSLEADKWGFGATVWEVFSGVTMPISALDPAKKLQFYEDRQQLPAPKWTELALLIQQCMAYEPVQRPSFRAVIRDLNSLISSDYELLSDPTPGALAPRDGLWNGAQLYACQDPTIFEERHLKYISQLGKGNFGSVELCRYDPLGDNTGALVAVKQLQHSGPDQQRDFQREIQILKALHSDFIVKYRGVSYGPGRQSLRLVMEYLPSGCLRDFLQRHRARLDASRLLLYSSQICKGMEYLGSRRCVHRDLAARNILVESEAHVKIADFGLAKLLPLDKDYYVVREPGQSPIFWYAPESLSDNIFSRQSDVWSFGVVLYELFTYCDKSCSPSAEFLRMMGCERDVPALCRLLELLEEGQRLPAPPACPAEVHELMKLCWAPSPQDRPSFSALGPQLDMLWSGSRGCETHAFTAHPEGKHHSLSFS

[5] = Inhibition of p38
[6] = target: Insulin-like growth factor 1 receptor (Homo sapiens, UniProt P08069); test: Inhibition of IGF
[7] = target: T4, Tyrosine-protein kinase ZAP-70 (Homo sapiens, UniProt P43403); test: Inhibition of ZAP70
T4 sequence (P43403 whole entry): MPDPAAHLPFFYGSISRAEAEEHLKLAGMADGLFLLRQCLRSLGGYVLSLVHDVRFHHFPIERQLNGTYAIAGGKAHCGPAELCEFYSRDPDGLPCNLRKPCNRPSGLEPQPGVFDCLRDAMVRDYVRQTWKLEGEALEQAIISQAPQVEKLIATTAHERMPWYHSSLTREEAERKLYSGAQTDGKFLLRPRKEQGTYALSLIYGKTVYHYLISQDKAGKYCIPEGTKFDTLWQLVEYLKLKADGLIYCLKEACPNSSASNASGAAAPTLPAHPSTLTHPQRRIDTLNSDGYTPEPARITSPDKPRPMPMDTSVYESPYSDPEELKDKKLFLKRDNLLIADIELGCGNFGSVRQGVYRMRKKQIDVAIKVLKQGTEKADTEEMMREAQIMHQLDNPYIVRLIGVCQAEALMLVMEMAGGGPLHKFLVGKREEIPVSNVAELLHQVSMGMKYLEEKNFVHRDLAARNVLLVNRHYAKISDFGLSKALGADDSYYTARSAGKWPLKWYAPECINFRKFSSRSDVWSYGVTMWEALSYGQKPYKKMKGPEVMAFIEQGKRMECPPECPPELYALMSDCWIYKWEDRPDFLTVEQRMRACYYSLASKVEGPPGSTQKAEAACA

[8] = target: Vascular endothelial growth factor receptor 2 (Homo sapiens, UniProt P35968); test: Inhibition of KDR
[9] = target: Serine/threonine-protein kinase PLK1 (Homo sapiens, UniProt P53350); test: Inhibition of PLK
[10] = target: T5, Serine/threonine-protein kinase Chk1 (Homo sapiens, UniProt O14757); test: Inhibition of CHK1
T5 sequence (O14757 whole entry): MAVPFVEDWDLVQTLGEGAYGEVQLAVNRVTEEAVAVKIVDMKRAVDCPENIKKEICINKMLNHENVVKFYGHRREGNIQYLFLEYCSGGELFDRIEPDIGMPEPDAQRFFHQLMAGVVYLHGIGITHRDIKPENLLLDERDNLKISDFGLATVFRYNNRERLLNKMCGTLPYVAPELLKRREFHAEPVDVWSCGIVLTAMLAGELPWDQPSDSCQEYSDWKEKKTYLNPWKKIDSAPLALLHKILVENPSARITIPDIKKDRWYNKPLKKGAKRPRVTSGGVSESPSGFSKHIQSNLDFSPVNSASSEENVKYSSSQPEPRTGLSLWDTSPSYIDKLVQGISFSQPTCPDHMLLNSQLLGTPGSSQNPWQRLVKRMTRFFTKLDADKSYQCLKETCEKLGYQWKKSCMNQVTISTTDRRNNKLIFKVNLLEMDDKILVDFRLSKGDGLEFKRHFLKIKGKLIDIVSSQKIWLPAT

[11] = Inhibition of JNK
[12] = Inhibition of PKA
[13] = Lipophilicity, Log D of compound at pH 7.4; assay type: physicochemical; conditions: buffer
[14] = Aqueous solubility of compound at pH 7.4; assay type: physicochemical
Plasma = test: Protein binding in Han Wistar rat plasma assessed as free drug; assay type: ADME, cell-free
[15] = Bioavailability in Han Wistar rat at 5 umol/kg, po; assay type: ADME, organism-based; conditions: in vivo
[16] = Volume of distribution at steady state in Han Wistar rat at 5 umol/kg, po or 0.5 umol/kg, iv; assay type: ADME, organism-based; conditions: in vivo, read-out: Vdss
[17] = Half life in Han Wistar rat at 5 umol/kg, po; assay type: ADME, organism-based; conditions: in vivo
[18] = AUC in Han Wistar rat at 5 umol/kg, po; assay type: ADME, organism-based; conditions: plasma
[19] = Clearance in Han Wistar rat at 5 umol/kg, po or 0.5 umol/kg, iv; assay type: ADME, organism-based; conditions: in vivo
[20] = Inhibition of FGF

Chain of Proto-oncogene tyrosine-protein kinase Src (P12931 2-536 limits assumed): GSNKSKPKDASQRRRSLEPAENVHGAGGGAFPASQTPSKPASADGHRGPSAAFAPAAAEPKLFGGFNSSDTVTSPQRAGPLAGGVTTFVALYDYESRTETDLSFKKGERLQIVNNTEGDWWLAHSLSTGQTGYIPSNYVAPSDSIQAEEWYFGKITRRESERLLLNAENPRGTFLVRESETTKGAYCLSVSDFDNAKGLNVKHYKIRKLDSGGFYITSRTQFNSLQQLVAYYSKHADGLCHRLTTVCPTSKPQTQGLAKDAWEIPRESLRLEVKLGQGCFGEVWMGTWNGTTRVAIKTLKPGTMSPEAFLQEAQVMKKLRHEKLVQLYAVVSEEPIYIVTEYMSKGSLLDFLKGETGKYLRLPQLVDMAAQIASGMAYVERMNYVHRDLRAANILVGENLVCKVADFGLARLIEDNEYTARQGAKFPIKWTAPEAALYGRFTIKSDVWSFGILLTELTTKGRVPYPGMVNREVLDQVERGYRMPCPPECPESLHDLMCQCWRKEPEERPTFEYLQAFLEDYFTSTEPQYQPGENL
Chain of Serine/threonine-protein kinase PLK1 (P53350 whole entry): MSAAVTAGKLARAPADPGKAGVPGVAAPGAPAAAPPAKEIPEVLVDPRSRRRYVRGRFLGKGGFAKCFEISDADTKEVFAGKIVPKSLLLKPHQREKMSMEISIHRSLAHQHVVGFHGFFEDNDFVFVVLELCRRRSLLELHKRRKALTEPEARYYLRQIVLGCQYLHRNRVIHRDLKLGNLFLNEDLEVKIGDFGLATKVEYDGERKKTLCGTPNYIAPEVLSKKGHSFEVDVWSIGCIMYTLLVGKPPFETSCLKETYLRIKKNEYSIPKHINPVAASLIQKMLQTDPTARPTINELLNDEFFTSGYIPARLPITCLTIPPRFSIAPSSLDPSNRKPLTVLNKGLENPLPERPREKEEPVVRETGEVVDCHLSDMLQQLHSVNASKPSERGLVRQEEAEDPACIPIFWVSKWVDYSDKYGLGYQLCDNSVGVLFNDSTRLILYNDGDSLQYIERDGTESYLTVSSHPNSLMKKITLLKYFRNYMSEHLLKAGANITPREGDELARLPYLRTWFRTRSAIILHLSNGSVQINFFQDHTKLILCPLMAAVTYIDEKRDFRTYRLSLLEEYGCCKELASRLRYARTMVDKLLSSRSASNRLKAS
Chain of Insulin-like growth factor 1 receptor (P08069 31-736 limits assumed): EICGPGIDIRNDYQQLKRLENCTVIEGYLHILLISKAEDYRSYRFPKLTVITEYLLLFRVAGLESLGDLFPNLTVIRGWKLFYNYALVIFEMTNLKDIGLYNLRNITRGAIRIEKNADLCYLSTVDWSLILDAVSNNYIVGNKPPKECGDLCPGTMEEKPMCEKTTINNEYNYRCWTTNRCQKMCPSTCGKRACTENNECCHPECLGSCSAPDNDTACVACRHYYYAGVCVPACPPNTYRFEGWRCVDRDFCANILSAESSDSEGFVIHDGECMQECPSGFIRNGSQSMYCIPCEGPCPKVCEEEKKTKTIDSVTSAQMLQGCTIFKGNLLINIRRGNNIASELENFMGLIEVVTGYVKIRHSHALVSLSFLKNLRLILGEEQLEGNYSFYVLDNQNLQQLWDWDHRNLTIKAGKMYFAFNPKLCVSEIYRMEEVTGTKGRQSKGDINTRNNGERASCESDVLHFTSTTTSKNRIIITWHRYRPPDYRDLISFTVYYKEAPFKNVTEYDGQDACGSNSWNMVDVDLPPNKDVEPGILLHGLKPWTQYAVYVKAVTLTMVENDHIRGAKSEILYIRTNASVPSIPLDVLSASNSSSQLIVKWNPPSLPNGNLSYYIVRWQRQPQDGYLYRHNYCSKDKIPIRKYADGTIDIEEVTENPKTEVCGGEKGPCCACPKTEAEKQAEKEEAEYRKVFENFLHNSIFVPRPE
Chain of Insulin-like growth factor 1 receptor (P08069 741-1367 limits assumed): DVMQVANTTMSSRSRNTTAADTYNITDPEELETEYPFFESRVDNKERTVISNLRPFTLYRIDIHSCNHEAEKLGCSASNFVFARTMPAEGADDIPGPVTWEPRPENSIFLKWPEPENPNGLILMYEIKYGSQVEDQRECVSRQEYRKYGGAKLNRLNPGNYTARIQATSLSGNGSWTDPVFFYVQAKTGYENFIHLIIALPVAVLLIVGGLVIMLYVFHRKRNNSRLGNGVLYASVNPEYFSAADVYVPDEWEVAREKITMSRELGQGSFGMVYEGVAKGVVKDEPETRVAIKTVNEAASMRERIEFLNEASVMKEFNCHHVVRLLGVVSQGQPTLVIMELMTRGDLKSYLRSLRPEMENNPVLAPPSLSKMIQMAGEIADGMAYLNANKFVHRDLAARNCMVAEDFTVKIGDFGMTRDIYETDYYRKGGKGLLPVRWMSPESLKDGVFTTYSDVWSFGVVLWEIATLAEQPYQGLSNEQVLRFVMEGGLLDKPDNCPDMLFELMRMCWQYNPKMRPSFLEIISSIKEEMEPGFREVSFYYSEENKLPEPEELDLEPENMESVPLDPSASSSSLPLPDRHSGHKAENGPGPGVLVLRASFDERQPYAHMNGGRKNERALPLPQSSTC
Chain of Vascular endothelial growth factor receptor 2 (P35968 whole entry): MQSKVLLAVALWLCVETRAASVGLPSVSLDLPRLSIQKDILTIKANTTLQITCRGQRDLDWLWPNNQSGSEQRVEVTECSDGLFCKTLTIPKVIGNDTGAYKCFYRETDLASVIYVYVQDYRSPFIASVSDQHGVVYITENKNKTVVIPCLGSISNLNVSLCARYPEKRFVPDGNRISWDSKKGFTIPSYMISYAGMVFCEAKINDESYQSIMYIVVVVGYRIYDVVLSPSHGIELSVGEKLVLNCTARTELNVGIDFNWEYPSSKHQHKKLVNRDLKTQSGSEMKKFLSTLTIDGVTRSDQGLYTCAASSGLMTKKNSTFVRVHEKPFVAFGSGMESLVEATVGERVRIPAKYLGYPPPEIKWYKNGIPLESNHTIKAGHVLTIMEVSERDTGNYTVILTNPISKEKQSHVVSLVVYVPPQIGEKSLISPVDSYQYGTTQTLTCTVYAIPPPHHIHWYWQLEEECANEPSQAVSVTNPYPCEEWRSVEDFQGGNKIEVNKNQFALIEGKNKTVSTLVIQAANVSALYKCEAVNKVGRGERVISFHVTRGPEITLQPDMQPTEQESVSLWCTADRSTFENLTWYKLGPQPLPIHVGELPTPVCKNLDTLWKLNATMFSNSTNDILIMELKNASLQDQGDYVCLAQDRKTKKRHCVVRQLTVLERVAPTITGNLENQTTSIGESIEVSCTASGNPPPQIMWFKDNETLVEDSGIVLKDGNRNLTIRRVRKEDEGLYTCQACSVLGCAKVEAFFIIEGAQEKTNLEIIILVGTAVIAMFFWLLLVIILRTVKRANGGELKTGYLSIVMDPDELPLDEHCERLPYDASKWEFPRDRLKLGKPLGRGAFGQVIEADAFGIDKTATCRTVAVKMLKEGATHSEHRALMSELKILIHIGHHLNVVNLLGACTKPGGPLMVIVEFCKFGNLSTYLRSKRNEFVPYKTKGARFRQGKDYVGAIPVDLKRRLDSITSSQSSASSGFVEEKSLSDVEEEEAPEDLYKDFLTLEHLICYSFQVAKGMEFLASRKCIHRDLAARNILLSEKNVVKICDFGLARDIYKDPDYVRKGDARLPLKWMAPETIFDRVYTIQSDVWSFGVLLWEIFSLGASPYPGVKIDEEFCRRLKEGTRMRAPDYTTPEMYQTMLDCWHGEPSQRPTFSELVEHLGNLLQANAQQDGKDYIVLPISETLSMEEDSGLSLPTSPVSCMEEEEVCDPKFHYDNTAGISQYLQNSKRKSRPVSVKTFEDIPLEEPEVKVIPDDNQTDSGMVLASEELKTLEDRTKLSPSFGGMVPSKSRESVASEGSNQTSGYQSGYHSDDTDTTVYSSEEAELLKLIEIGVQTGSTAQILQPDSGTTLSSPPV
Chain of Focal adhesion kinase 1 (Q05397 whole entry): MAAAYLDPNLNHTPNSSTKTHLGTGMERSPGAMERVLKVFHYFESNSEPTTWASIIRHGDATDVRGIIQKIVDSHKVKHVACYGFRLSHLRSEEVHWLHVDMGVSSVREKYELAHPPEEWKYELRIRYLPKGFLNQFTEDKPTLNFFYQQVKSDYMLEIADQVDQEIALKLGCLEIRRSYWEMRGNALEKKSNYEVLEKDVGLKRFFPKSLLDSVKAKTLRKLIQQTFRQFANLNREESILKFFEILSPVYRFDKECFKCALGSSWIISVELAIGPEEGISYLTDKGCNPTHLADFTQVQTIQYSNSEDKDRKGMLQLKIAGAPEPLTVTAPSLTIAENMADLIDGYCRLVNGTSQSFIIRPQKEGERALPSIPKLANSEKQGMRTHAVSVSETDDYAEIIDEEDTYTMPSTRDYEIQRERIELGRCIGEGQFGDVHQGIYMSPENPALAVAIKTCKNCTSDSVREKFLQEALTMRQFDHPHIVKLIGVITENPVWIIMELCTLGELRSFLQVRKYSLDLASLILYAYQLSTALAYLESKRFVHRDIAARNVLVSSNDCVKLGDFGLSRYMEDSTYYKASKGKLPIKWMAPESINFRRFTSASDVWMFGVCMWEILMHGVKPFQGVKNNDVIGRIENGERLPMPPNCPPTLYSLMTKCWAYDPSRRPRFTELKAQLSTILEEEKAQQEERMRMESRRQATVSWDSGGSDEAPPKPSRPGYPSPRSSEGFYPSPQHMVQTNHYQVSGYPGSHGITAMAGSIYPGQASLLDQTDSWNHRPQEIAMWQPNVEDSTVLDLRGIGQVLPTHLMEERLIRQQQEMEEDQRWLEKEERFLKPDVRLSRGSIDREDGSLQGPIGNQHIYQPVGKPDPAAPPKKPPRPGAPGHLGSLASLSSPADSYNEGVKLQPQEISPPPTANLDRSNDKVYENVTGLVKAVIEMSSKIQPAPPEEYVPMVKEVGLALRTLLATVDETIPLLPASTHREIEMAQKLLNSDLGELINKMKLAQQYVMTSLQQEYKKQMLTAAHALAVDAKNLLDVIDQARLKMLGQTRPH

- IC50 (Ephrin type-B receptor 4): 1 µM
SMILES: Clc1ccc2c(c1Nc1ccnc(Nc3ccc(N4CCOCC4)cc3)n1)OCO2

- IC50 (Ephrin type-B receptor 4): 0.63 µM
SMILES: CS(=O)(=O)c1ccc(Nc2nccc(Nc3c(Cl)ccc4c3OCO4)n2)cc1

- IC50 (Ephrin type-B receptor 4): 1.33 µM
SMILES: Clc1cccc(Nc2nccc(Nc3c(Cl)ccc4c3OCO4)n2)c1

SMILES: Fc1ccc(Nc2nccc(Nc3c(Cl)ccc4c3OCO4)n2)cc1
- IC50 (Ephrin type-B receptor 4): 2.3 µM

- IC50 (Ephrin type-B receptor 4): 1.55 µM
SMILES: Clc1ccc2c(c1Nc1ccnc(Nc3ccccc3)n1)OCO2

- IC50 (Ephrin type-B receptor 4): 2.96 µM
SMILES: COc1cc(Nc2ncnc(Nc3c(Cl)ccc4c3OCO4)n2)cc(OC)c1OC

- IC50 (Ephrin type-B receptor 2): 0.05 µM
- IC50 [1]: < 0.1 µM
- IC50 [2]: 10.7 µM
- IC50 [3]: 17.6 µM
- IC50 (Focal adhesion kinase 1): 19.7 µM
- IC50 [4]: 20.5 µM
- IC50 [5]: 27.1 µM
- IC50 [6]: > 30 µM
- IC50 [7]: > 30 µM
- IC50 [8]: > 30 µM
- IC50 [9]: > 30 µM
- IC50 [10]: > 30 µM
- IC50 [11]: > 30 µM
- IC50 [12]: > 30 µM
- logD [13]: 3.13
- solubility [14]: 30 µM (≈ 12.6 µg/mL)
- Fu (Plasma): 0.74%
- bioavailability [15]: 30%
- Vd [16]: 0.5 L/kg
- half-life [17]: 5.3 h
- AUC [18]: 4 µM·h
- clearance [19]: 6.1 mL/min/kg
- IC50 [20]: > 30 µM
SMILES: CS(=O)(=O)c1cccc(Nc2nccc(Nc3c(Cl)ccc4c3OCO4)n2)c1

- IC50 (Ephrin type-B receptor 4): 1.6 µM
SMILES: Cc1ccc(Nc2nccc(Nc3c(Cl)ccc4c3OCO4)n2)cc1

- IC50 (Ephrin type-B receptor 4): 5 µM
SMILES: Fc1ccccc1Nc1nccc(Nc2c(Cl)ccc3c2OCO3)n1

- IC50 (Ephrin type-B receptor 4): 1.15 µM
SMILES: Fc1cccc(Nc2nccc(Nc3c(Cl)ccc4c3OCO4)n2)c1

- IC50 (Ephrin type-B receptor 4): 7.85 µM
SMILES: Clc1ccc2c(c1Nc1ccnc(Nc3ccccc3N3CCOCC3)n1)OCO2

- IC50 (Ephrin type-B receptor 4): 0.3 µM
SMILES: NS(=O)(=O)c1ccc(Nc2nccc(Nc3c(Cl)ccc4c3OCO4)n2)cc1
